The record followed here is the OPERA property sets (Mansouri et al. 2018).

Conditions in one data set: not given
As usually defined, the melting point is the temperature, or range, at which the solid turns liquid. `O=P(O)(O)C(Cl)(Cl)P(=O)(O)O` displayed a melting point of 250 °C.

In general, boiling point refers to the temperature at which the vapour pressure of the liquid equals the pressure above it. `Cc1cccc(-c2ccccc2C)c1` registered a boiling point of 270 °C.

For the compound `Oc1nc(O)nc(O)n1`, the melting point stood at 360 °C and the ready biodegradability result is reported as “readily biodegradable”.

On to `FC(F)(F)C(F)(F)C(F)(F)F`, for which the boiling point was -36.6 °C, the log10 vapour pressure (mmHg) was found to be 3.82 and the melting point was -148 °C.

The compound `CC1(C)CCCNC1` yielded a boiling point of 137 °C.

For `CCCCCCCCOC(=O)CCCCCCCCC(=O)OCCCCCCCC`, the ready biodegradability result is given as “readily biodegradable”.

For the compound `O=C(O)c1cc([N+](=O)[O-])cc([N+](=O)[O-])c1O`, the melting point was found to be 170 °C.

Take `O=C(O)c1ccnc(C(=O)O)c1`: the melting point is 249 °C and the ready biodegradability entry is given as “readily biodegradable”.

As to `FC(F)(F)C#CC(F)(F)F`, the boiling point was -24.6 °C and the melting point was -117 °C.

In turn, `CCCCCCCCCCCCCCCCCCCC1CCCCC1` showed a boiling point of 420 °C and a melting point of 45 °C.

The compound `O=C(O)C(O)C(Cl)(Cl)Cl` (stereo not given) displayed a melting point of 125 °C.

`C=CCCCCCCCC` returned a boiling point of 170 °C, a log10 vapour pressure (mmHg) of 0.223 and a melting point of -66.3 °C.

`CCCN(CCC)C(=O)SCC` showed a log10 Koc (L/kg) of 2.38 and a log10 vapour pressure (mmHg) of -1.62.

For the compound `CCc1ccc(OC)cc1`, the boiling point amounted to 198 °C.

In the case of `Cc1cccc(C)c1Cl`, the boiling point was 186 °C and the melting point was -35 °C.

Turning to `CS(C)=O`, the boiling point was found to be 189 °C, the log10 Henry constant (atm·m³/mol) is -8.82, the log10 Koa was found to be 4.96 and the log10 vapour pressure (mmHg) was -0.215. Also, the melting point worked out at 18.5 °C and the ready biodegradability entry is listed as “not readily biodegradable”.

In turn, `Clc1cccs1` gave a boiling point of 128 °C, a log10 vapour pressure (mmHg) of 1.38 and a melting point of -71.9 °C.

Turning to `CN[C@@H](C)[C@H](O)c1ccccc1`, the boiling point came to 255 °C.

`C=CC(C)CCC` (stereo not given) had a boiling point of 83.9 °C and a log10 vapour pressure (mmHg) of 1.92.

In turn, `CCCC(C)O` (stereo not given) gave a boiling point of 119 °C, a log10 Henry constant (atm·m³/mol) of -4.83, a log10 vapour pressure (mmHg) of 0.786 and a melting point of -73 °C. For the same compound, the ready biodegradability result is on record as “readily biodegradable”.

Compound `CCCCOc1ccc(/N=N/c2ccc(N)nc2N)cn1` showed a melting point of 129 °C.

Regarding `CC1(C)NC(=O)NC1=O`, the melting point is 178 °C.

The compound `CCC(C)(S(=O)(=O)CC)S(=O)(=O)CC` yielded a melting point of 76 °C.

`CCCCCCCCCCCCCCCCCCCCCCCCCCCCCC` yielded a boiling point of 450 °C, a log10 biodegradation half-life (days) of 2.24, a log10 vapour pressure (mmHg) of -10.6 and a melting point of 65.8 °C. Also, the ready biodegradability entry is “readily biodegradable”.

Consider `OC1c2ccccc2CCc2ccccc21`, for which the melting point was determined as 92 °C.

For the compound `CCc1cc2c(cc1C(C)=O)C(C)(C)CCC2(C)C`, the melting point worked out at 46.5 °C.

Compound `NCCCCCCCN` gave a boiling point of 224 °C and a melting point of 28.9 °C.

As to `CCOC(=O)c1cncn1C(C)c1ccccc1` (stereo not given), the melting point stood at 67 °C.

`CC[Si](Cl)(Cl)Cl` came in with a boiling point of 100 °C, a log10 vapour pressure (mmHg) of 1.67 and a melting point of -106 °C.

Regarding `COc1ccc(C=CC(=O)c2ccccc2)cc1`, the melting point is 79 °C.

`Clc1cccc(-c2cc(Cl)c(Cl)c(Cl)c2Cl)c1Cl` gave a log10 Henry constant (atm·m³/mol) of -4.54.

In turn, `Cc1ccc(N=Nc2ccccc2)cc1` showed a boiling point of 312 °C and a melting point of 71.5 °C.

In turn, `NC[C@H](O)C(=O)O` registered a melting point of 235 °C.

Compound `CC(=O)Nc1cccc(O)c1` had a melting point of 147 °C.

The compound `O=CC=Cc1ccco1` came in with a melting point of 54 °C.

Compound `COc1ccccc1N1CCNCC1` yielded a melting point of 38.5 °C.

Turning to `CCCCCCCCCC(Br)C(=O)O` (stereo not given), the melting point came to 10 °C.

The compound `O=C(O)c1cccc(F)c1F` showed a melting point of 164 °C.

Compound `c1ccc2c(c1)Nc1ccccc1O2` showed a melting point of 156 °C.

In turn, `O=C(O)CCCCCCCCCCCCC1C=CCC1` (stereo not given) gave a melting point of 68.5 °C.

Compound `CCOc1cccc(C(=O)O)c1` registered a melting point of 137 °C.

`Cc1c(Cl)c(Cl)cc(Cl)c1Cl` returned a melting point of 93.5 °C.

In turn, `CNC(=O)Oc1cc(C)cc(C(C)C)c1` gave a log10 Koc (L/kg) of 2.48, a log10 vapour pressure (mmHg) of -4.52 and a melting point of 87 °C.

With `O=[N+]([O-])CCCl`, the boiling point came out at 174 °C.

Take `Cc1ccc(C(=O)O)c(O)c1`: the melting point is 177 °C.

As for `Oc1c(Cl)cc(Cl)c(Cl)c1Cc1c(O)c(Cl)cc(Cl)c1Cl`, the boiling point was found to be 479 °C, the melting point came out at 166 °C and the ready biodegradability entry is listed as “not readily biodegradable”.

Regarding `CCOc1cccc(Cl)c1`, the boiling point was 207 °C.

`C=C[Si](C)(C)C` came in with a boiling point of 55 °C.

`Cc1cc(C)c(C=O)c(C)c1` came in with a boiling point of 238 °C and a melting point of 14 °C.

For `Cc1ccc(S(=O)(=O)O)cc1`, the melting point was 104 °C and the ready biodegradability entry is “readily biodegradable”.

For `CCC(O)CN` (stereo not given), the boiling point is 169 °C and the melting point worked out at 3 °C.

Compound `CCC(C)(Br)CC` gave a boiling point of 130 °C.

`NS(=O)(=O)c1ccc(SCCCO)cc1` displayed a melting point of 117 °C.

`O=[N+]([O-])c1ccc(O)c(F)c1` registered a melting point of 121 °C.

`O=C1c2ccccc2C(=O)c2c(Br)cccc21` came in with a melting point of 186 °C.

Consider `C[C@H](Oc1ccccc1)C(=O)O`, for which the boiling point is 266 °C and the melting point is 118 °C.

`CCCC(C)C(=O)O` (stereo not given) yielded a boiling point of 196 °C.

For `Clc1ccc2c(Cl)c(Cl)ccc2c1Cl`, the log10 Koa amounted to 8.28.

Consider `O=c1ccn([C@@H]2C[C@@H](O)[C@H](CO)O2)c(=O)[nH]1`, for which the melting point was 163 °C.

Consider `NC=S`, for which the melting point amounted to 26.5 °C.

As for `CC(=O)Nc1ccc(C)c(NS(=O)(=O)C(F)(F)F)c1`, the melting point was 176 °C.

In the case of `c1ccc(-c2ccc(-c3ccccc3)o2)cc1`, the boiling point is 344 °C and the melting point turned out to be 91 °C.

On to `O=C1CCCN1`, for which the boiling point worked out at 245 °C, the log10 vapour pressure (mmHg) is -2.02 and the melting point worked out at 23 °C.

For the compound `CCc1ccccc1O`, the boiling point was 204 °C, the log10 vapour pressure (mmHg) is -0.815 and the melting point came out at 18 °C.

On to `CCS(=O)CC`, for which the melting point turned out to be 14 °C.

In turn, `O=C(O)c1cc(O)cc(C(=O)O)c1` registered a melting point of 293 °C.

`CC(=O)N(C)C(C)=O`: the boiling point was determined as 195 °C and the melting point is -25 °C.

In turn, `ClC(Cl)(Cl)c1ccc(C(Cl)(Cl)Cl)cc1` yielded a melting point of 109 °C.

The compound `CC/C=C\CO` showed a boiling point of 138 °C.

`COc1ccccc1O` registered a boiling point of 205 °C, a log10 Henry constant (atm·m³/mol) of -5.92, a log10 Koc (L/kg) of 1.56 and a log10 vapour pressure (mmHg) of -0.987. In addition, the melting point turned out to be 32 °C and the ready biodegradability entry is listed as “readily biodegradable”.

The compound `CCCC(C)C(O)CC` (stereo not given) came in with a boiling point of 170 °C and a melting point of -123 °C.

On to `CC(C)OC(=O)C(Cl)Cl`, for which the boiling point was 164 °C.

The compound `CC(=O)c1ccc(C)s1` yielded a boiling point of 232 °C and a melting point of 27.5 °C.

As to `O=C(O)C(F)(F)C(F)(F)C(F)(F)C(F)(F)C(=O)O`, the melting point amounted to 134 °C.

`CCC(=O)OC/C=C(\C)CCC=C(C)C` registered a boiling point of 253 °C.

In the case of `CC(=O)Oc1ccc(C(=C2CCCCC2)c2ccc(OC(C)=O)cc2)cc1`, the melting point is 136 °C.

Take `CC(C)c1cccc(C(C)C)c1N`: the boiling point is 257 °C and the melting point is -45 °C.

`CC(=O)C1CC=C(C)CC1` (stereo not given) had a boiling point of 171 °C.

`O=C(O)c1cc(Br)cc(Br)c1O` showed a melting point of 228 °C.

The same data set, now with this note: fish.
`Oc1nc(O)nc(O)n1`: the log10 BCF was -0.3.

For `C=CCCCCCCCC`, the log10 biotransformation half-life (days) amounted to 0.65.

Regarding `CS(C)=O`, the log10 BCF was 0.6.

`Oc1c(Cl)cc(Cl)c(Cl)c1Cc1c(O)c(Cl)cc(Cl)c1Cl` returned a log10 BCF of 2.07.
